# Source: ChEMBL document CHEMBL1201862, “PubChem BioAssay data set” (2004)
# Calls of active or inactive are those of the source.
# Assays:
# Phospholipase A2 = Phospholipase A2 (Homo sapiens, UniProt P04054); type: functional;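 further: confirmatory dose-response counterscreen on phospholipase A2, testing hits that came from an ultra-high-throughput screen for ATG4B inhibitors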
# [1] = target: T1, Dual specificity protein phosphatase 6 (Rattus norvegicus, UniProt Q64346)
# [2] = target: Heat shock cognate 71 kDa protein (Homo sapiens, UniProt P11142); assay: In Vitro Hsc70 Dose Response Fluorescence Polarization Assay. [Related pubchem assays: 1072 ]
# Sequence of Heat shock cognate 71 kDa protein (P11142 whole entry): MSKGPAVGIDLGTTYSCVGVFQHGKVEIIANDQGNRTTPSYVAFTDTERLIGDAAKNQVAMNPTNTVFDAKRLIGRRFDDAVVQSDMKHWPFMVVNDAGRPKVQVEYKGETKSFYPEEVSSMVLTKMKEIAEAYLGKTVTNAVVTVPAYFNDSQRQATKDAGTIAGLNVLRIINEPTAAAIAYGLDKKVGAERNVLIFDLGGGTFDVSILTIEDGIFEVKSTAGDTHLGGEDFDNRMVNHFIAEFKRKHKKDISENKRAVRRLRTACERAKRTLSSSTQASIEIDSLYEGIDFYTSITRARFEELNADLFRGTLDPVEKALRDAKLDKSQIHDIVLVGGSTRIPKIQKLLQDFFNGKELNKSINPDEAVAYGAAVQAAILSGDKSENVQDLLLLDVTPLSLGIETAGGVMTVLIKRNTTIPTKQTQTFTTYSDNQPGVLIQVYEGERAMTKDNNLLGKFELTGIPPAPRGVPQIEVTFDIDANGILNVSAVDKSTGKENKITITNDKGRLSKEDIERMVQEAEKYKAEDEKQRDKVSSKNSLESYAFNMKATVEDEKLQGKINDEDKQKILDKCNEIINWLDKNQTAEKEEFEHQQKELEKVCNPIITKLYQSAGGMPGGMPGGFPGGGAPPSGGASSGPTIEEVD
# [3] = target: T1, Dual specificity protein phosphatase 6; type: functional
# [4] = target: Glyceraldehyde-3-phosphate dehydrogenase (Homo sapiens, UniProt P04406)
# Sequence of Glyceraldehyde-3-phosphate dehydrogenase (P04406 whole entry): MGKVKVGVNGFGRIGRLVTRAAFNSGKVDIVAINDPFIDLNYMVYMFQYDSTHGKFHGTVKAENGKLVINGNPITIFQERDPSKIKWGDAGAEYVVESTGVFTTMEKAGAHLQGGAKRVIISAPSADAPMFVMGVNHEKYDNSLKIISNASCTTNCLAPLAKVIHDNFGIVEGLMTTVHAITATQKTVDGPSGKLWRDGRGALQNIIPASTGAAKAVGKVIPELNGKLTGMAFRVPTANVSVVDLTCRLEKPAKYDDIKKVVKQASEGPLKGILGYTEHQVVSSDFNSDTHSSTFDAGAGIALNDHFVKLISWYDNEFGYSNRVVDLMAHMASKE
# [5] = target: Dual specificity protein phosphatase 3 (Homo sapiens, UniProt P51452); assay: inhibition constants for human DUSP3 – biochemical, colorimetric, SAR follow-up (AID 2004)
# Sequence of Dual specificity protein phosphatase 3 (P51452 whole entry): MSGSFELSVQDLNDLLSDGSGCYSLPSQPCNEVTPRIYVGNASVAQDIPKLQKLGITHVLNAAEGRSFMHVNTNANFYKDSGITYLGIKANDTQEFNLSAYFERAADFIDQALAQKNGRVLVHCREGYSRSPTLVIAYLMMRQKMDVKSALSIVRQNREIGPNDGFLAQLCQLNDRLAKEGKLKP
# [6] = target: Heat shock 70 kDa protein 1A (Homo sapiens, UniProt P0DMV8); assay: inhibition of Hsp70 binding activity – biochemical, fluorescence polarization, SAR follow-up (AID 1072)
# Sequence of Heat shock 70 kDa protein 1A (P0DMV8 whole entry): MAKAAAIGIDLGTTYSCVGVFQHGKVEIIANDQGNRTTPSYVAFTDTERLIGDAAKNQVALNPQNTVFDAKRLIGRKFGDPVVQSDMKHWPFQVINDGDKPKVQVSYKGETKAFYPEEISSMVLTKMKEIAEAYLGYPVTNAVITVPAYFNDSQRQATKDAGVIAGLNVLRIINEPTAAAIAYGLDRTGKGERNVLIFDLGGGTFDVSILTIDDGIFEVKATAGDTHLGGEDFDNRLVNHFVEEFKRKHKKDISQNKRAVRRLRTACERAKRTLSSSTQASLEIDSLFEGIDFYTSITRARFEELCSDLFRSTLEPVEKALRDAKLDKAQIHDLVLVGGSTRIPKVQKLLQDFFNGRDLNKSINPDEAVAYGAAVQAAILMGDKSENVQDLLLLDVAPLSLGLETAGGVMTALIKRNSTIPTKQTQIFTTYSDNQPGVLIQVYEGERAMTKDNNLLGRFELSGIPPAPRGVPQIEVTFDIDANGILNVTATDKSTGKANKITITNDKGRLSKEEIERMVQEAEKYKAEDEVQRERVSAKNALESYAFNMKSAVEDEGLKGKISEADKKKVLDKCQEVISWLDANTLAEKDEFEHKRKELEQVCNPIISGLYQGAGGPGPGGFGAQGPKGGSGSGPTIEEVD
# Cysteine protease ATG4B = target: T2, Cysteine protease ATG4B (Homo sapiens, UniProt Q9Y4P1); type: functional;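 further: Fluorescence-based dose-response confirmation assay measuring inhibition of ATG4B activity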
# T2 sequence (Q9Y4P1 whole entry): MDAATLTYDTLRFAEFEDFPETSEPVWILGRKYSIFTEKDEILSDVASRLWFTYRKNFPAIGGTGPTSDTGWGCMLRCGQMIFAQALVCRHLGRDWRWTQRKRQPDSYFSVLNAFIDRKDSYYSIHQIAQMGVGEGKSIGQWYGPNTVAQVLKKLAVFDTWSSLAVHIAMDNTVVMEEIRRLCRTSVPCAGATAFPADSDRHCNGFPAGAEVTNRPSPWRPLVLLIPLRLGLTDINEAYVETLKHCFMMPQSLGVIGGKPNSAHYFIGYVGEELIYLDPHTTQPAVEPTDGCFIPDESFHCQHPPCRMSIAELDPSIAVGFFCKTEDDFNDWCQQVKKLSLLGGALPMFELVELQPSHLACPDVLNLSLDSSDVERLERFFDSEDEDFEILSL
# [7] = target: T3, Tyrosine-protein phosphatase non-receptor type 7 (Homo sapiens, UniProt P35236); type: functional
# T3 sequence (P35236 whole entry): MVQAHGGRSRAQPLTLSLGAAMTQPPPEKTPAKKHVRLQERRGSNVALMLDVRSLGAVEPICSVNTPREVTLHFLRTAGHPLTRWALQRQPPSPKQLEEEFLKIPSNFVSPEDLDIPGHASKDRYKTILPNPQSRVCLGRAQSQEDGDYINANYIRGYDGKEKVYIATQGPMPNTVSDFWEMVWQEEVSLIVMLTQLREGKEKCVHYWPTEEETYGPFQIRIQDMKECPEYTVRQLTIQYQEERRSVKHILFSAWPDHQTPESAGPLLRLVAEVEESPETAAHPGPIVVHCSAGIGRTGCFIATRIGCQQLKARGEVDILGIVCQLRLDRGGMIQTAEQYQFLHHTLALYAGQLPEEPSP
# Bcl-2-like protein 10 = target: T4, Bcl-2-like protein 10 (Homo sapiens, UniProt Q9HD36); assay: Concentration-response of Bcl-B inhibitors by biochemical FP with TR3 (AID 1243); type: functional
# T4 sequence (Q9HD36 whole entry): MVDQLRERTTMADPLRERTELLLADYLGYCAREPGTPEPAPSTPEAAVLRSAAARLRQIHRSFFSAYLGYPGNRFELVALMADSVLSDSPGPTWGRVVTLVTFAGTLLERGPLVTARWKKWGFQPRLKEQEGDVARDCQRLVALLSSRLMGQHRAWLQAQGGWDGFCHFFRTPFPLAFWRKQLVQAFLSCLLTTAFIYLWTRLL
# [8] = target: T5, Endoribonuclease toxin MazF (Escherichia coli K-12, UniProt P0AE70); assay: substrate-only fluorescence increase artefacts – biochemical, single-stranded RNase substrate, counter-screen for MazEF activator project, dose response (AID 588502); type: functional
# T5 sequence (P0AE70 whole entry): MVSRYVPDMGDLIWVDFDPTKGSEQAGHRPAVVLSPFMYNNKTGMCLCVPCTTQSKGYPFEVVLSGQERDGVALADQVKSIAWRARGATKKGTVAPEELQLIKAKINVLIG
# [9] = target: T5, Endoribonuclease toxin MazF; assay: activation of MazEF endoribonuclease cleavage – biochemical, fluorescence, single-stranded RNA substrate, uHTS hits, dose response (AID 588481); type: functional
# Keap1/Nrf2 = Keap1/Nrf2 (Homo sapiens, UniProt Q14145); assay: disruptors of Keap1 binding to Nrf2 peptide – biochemical, fluorescence polarization, cherry-picked samples, dose response (AID 588683)
# Sequence of Keap1/Nrf2 (Q16236 whole entry): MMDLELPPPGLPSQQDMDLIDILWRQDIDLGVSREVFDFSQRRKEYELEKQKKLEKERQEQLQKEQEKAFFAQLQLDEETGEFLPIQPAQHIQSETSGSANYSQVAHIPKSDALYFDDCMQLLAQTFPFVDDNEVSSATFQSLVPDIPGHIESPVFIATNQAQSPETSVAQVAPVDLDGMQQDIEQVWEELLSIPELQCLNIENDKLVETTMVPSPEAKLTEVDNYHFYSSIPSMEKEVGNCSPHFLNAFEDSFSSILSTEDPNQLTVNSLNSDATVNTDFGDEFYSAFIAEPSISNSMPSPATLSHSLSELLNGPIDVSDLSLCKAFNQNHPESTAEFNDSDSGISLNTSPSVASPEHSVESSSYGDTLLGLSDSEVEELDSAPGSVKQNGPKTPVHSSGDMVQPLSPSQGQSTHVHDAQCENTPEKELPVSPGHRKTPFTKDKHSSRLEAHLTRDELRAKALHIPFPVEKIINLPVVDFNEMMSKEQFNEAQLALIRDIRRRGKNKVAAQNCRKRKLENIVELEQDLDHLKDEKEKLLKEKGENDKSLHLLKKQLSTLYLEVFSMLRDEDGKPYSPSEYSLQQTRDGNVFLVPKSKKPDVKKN
# Sequence of Keap1/Nrf2 (Q14145 whole entry): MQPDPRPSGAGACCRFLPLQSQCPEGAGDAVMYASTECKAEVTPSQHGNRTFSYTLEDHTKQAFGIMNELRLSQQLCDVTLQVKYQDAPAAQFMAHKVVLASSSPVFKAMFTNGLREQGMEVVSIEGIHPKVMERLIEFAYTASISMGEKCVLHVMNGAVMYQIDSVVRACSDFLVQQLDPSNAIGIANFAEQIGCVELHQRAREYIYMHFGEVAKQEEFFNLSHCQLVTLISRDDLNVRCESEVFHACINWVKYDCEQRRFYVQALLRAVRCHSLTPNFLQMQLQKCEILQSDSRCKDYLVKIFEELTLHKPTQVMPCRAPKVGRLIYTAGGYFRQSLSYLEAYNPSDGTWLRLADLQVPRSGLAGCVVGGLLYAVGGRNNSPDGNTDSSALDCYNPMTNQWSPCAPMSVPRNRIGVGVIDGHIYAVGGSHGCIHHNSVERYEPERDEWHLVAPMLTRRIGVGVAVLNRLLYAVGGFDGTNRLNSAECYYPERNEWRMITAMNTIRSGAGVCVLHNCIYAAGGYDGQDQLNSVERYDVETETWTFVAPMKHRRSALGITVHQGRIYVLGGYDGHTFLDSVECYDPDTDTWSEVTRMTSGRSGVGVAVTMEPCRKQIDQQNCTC
# [10] = target: T6, Polyadenylate-binding protein 1 (Homo sapiens, UniProt P11940); assay: blockers of PABP interaction with poly(A) – biochemical, fluorescence polarization, […] (AID 2014)
# T6 sequence (P11940 whole entry): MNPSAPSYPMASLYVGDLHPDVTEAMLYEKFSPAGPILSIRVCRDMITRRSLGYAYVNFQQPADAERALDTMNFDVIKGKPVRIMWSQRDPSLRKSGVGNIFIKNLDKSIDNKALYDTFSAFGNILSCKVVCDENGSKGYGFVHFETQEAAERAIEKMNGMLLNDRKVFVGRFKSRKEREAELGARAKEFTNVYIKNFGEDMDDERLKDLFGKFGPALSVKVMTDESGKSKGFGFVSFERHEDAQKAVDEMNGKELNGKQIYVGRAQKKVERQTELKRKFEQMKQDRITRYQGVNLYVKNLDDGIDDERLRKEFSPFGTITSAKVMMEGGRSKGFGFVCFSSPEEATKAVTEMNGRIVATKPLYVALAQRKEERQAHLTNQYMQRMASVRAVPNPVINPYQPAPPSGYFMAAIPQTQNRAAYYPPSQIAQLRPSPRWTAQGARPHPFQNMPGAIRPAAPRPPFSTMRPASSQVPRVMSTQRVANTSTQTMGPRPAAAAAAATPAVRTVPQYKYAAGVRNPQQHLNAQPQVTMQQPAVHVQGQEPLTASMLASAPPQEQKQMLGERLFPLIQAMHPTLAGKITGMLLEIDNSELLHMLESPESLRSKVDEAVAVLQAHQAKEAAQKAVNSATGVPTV
# [11] = target: T7, Small ubiquitin-related modifier 1 (Homo sapiens, UniProt P63165); assay: SUMO1 protein-protein binding blockers, potency – biochemical, FRET, dose response (AID 624383); type: functional; details: read-out: IC50_Mean
# T7 sequence (P63165 whole entry): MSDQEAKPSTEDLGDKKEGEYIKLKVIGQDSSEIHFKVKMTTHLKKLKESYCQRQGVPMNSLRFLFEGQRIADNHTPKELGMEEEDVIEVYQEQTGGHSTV
# [12] = target: T8, Eukaryotic translation initiation factor 4H (Homo sapiens, UniProt Q15056); assay: inhibitors of translation initiation factor eIF4H – SAR follow-up (AID 435011); type: functional
# [13] = target: T6, Polyadenylate-binding protein 1; assay: PABP inhibition in translation initiation, SAR follow-up (AID 435018); type: functional
# [14] = target: T9, Apoptotic protease-activating factor 1 (Homo sapiens, UniProt O14727); assay: activation of Apaf-1 mediated apoptosis – fluorescent, uHTS hits, dose response (AID 588554); type: functional
# T9 sequence (O14727 whole entry): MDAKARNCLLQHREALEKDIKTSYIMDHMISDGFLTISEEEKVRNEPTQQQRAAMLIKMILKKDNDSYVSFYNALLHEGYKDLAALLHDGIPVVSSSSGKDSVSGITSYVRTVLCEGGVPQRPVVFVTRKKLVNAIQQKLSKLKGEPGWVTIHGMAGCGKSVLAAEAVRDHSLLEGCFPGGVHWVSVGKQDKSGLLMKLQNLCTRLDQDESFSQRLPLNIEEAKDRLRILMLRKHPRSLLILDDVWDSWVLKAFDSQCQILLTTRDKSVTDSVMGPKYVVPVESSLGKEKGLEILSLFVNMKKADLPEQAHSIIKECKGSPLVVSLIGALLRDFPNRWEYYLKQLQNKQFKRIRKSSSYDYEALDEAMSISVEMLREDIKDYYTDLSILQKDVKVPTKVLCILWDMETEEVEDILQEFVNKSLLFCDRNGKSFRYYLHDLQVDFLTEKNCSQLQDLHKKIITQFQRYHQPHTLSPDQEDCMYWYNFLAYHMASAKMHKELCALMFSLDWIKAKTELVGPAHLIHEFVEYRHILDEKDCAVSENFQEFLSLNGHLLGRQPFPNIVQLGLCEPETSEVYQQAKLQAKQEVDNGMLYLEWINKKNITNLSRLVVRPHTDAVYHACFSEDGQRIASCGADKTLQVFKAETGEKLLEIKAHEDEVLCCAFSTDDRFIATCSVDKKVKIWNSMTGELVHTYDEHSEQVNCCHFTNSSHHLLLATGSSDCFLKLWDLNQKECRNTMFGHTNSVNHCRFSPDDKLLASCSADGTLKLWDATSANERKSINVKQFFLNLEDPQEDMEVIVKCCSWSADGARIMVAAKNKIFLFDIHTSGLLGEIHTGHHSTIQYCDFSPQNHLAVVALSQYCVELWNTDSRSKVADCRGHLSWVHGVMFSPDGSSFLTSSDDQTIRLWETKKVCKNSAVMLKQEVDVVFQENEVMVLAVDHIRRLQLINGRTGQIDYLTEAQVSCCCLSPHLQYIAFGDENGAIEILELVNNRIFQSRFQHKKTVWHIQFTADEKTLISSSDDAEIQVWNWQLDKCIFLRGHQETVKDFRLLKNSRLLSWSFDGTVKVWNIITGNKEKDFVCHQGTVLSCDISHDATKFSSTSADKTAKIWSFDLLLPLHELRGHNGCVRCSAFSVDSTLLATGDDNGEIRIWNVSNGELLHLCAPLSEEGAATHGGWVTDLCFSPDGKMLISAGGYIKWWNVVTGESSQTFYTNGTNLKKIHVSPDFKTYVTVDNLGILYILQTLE
# [15] = target: T8, Eukaryotic translation initiation factor 4H; assay: eIF4H binding inhibition – biochemical, uHTS, fluorescence polarization, translation initiation inhibitor project, primary screen (AID 2012)
# [16] = target: T7, Small ubiquitin-related modifier 1; assay: SUMO1 protein interaction blockers, potency – biochemical, fluorescence polarization, uHTS hits, dose response (AID 624382); type: functional; details: read-out: IC50_Mean
# [17] = target: UDP-galactopyranose mutase (Mycobacterium tuberculosis, UniProt P9WIQ1); assay: Inhibitors of Mycobacterium tuberculosis UDP-galactopyranose mutase (UGM) enzyme Measured in Biochemical System Using Plate Reader - 2105-02_Inhibitor_Dose_CherryPick_Activity. [Related pubchem assays (depositor defined):AID504439]
# Sequence of UDP-galactopyranose mutase (P9WIQ1 whole entry): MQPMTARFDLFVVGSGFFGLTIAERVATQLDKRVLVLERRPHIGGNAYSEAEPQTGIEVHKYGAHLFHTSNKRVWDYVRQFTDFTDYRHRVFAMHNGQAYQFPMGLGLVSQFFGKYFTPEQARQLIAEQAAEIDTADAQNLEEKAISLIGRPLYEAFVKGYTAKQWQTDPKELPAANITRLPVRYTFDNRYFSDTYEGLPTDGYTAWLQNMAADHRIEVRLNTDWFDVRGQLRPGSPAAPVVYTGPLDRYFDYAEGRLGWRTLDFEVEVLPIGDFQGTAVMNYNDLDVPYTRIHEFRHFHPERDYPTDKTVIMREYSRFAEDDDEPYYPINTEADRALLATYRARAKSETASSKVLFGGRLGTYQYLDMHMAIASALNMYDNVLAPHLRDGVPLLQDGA
# Candida albicans = assay: antifungal activity against resistant Candida strain – CaCi-8, fluconazole, Alamar Blue, dry powder, dose response (AID 488807); type: functional, organism-based
# [18] = A Cell Based Secondary Assay To Explore Cytotoxicity of Compounds that Sensitize Mycobacterium Tuberculosis to Beta-Lactam Antibiotics.; type: functional
# [19] = luciferase reporter signal suppression in cells – H4 neuroglioma cells, luminescence, dose response (AID 1990); type: functional, cell-based
# [20] = Luminescence Cell-Based Dose Retest to Confirm Inhibitors of Cancer Stem Cells. [Related pubchem assays (depositor defined):AID2717, AID2721]; type: functional; details: Homo sapiens
# [21] = alpha-synuclein stem-loop luciferase translation blockers – H4 neuroglioma cells, luminescence, confirmation (AID 1988); type: functional, cell-based
# Estrogen receptor = target: T10, Estrogen receptor (Homo sapiens, UniProt P03372);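 further: potency for inhibiting coactivator peptide recruitment to the receptor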
# T10 sequence (P03372 whole entry): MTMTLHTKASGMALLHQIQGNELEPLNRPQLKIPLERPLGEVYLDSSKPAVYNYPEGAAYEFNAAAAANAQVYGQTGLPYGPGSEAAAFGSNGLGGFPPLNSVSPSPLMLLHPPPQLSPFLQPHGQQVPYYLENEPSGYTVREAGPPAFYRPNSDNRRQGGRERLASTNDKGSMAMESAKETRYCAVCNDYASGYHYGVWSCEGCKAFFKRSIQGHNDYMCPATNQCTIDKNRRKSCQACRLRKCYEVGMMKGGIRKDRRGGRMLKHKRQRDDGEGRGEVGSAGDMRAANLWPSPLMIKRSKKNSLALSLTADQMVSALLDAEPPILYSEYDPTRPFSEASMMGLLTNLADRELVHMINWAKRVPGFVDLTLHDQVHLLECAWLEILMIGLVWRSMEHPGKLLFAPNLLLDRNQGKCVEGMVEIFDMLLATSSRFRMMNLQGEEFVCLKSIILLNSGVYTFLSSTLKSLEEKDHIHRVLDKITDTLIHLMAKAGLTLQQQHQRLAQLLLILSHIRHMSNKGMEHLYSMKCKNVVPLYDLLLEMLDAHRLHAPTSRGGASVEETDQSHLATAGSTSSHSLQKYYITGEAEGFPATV
# [22] = viability loss of HMLE_sh_eGFP cells – cell-based, luminescence, counter-screen for HMLE_sh_ECad selective toxicity project, dose response (AID 463074); type: functional, Homo sapiens;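 further: HMLE human mammary epithelial cells expressing control shRNA against eGFP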
# [23] = Luminescence Cell-Based Dose Response HTS to Identify Inhibitors of 5'UTR Stem-Loop Driven Prion Protein mRNA Translation in H4 Neuroglioblastoma Cells. [Related pubchem assays: 1827 (Project Summary), 1813 (Primary HTS)]; type: functional
# T1 sequence (Q64346 whole entry): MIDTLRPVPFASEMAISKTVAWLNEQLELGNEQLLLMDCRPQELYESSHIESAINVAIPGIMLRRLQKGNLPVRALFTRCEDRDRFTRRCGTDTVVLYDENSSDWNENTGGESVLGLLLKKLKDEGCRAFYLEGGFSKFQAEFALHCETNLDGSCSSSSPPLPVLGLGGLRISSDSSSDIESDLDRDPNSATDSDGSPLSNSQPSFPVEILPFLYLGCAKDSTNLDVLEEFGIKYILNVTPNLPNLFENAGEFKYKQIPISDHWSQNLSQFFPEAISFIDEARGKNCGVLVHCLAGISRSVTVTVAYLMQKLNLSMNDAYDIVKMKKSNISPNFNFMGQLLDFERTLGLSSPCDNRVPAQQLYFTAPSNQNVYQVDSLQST
smiles,measurement,setting,value
O=C(O)C1Nc2c(Cl)cc(Cl)cc2C2C=CCC12 (centres undefined),IC50,Phospholipase A2,9.08 µM (active)
same,IC50,[1],63.5 µM (active)
same,IC50,[2],> 100 µM (not active)
same,IC50,[3],53 µM (active)
same,IC50,[4],> 100 µM (not active)
same,Ki,[5],65.6 µM (inactive)
same,IC50,[6],> 100 µM (not active)
same,IC50,Cysteine protease ATG4B,2.58 µM (active)
same,IC50,[7],12.9 µM (active)
same,EC50,Bcl-2-like protein 10,1.03 µM (active)
O=C(C1=C(O)C(=O)N(c2nccs2)C1c1ccccc1)c1cc2ccccc2o1 (centres undefined),EC50,[8],> 99 µM (inactive)
same,EC50,[9],> 99 µM (inactive)
same,AC50,Keap1/Nrf2,1.15 µM (active)
COc1cc([N+](=O)[O-])ccc1NC(=O)COC(=O)c1ccc(NC(N)=O)cc1,IC50,[10],> 100 µM (inactive)
same,IC50,[11],10.2 µM (active)
same,IC50,[12],4.62 µM (active)
same,IC50,[13],76.2 µM (active)
same,EC50,[14],10.4 µM (active)
same,IC50,[15],14.6 µM (active)
same,IC50,[16],> 66.6 µM (inactive)
O=C(NCCc1ccc(F)cc1)c1cccc2c1C(=O)c1ccc(N3CCC(Cc4ccccc4)CC3)cc1S2(=O)=O,AC50,[17],47.8 µM (active)
Oc1c2nc3ccccc3c-2nc2n1CCS2,AC50,Candida albicans,17.1 µM (active)
Cc1nc2ccccc2c(=O)n1/N=C/c1c(O)ccc2oc3c(c12)CCCC3,CC50,[18],4.26 µM (active)
same,EC50,[19],11.1 µM (active)
same,AC50,[20],30 µM (active)
same,EC50,[21],9.98 µM (active)
same,IC50,Estrogen receptor,29.2 µM (active)
same,AC50,[22],32.8 µM (active)
same,EC50,[23],11.7 µM (active)
